Laboratory results reported in PubChem BioAssay (NCI).
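Interpolation was linear, between the two tested concentrations surrounding the appropriate level; five concentrations were tested over 48 hours in 96-well plates. GI50 marks 50% less growth. TGI denotes the concentration required for complete inhibition of growth.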

What was measured:
Test in all cases: growth of human tumour cells (NCI), 48 h
UACC-62 melanoma = tested on: UACC-62 melanoma
ACHN renal = tested on: ACHN renal
OVCAR-4 ovarian = tested on: OVCAR-4 ovarian
IGROV1 ovarian = tested on: IGROV1 ovarian
SF-539 CNS = tested on: SF-539 CNS
CAKI-1 renal = tested on: CAKI-1 renal
SK-OV-3 ovarian = tested on: SK-OV-3 ovarian
NCI/ADR-RES ovarian = tested on: NCI/ADR-RES ovarian
UACC-257 melanoma = tested on: UACC-257 melanoma
SK-MEL-28 melanoma = tested on: SK-MEL-28 melanoma
HS 578T breast = tested on: HS 578T breast
SNB-75 CNS = tested on: SNB-75 CNS
NCI-H522 lung = tested on: NCI-H522 lung
MCF7 breast = tested on: MCF7 breast
CCRF-CEM leukemia = tested on: CCRF-CEM leukemia
T-47D breast = tested on: T-47D breast
OVCAR-8 ovarian = tested on: OVCAR-8 ovarian
RXF 393 renal = tested on: RXF 393 renal
A549 NSCLC = tested on: A549 NSCLC
MOLT-4 leukemia = tested on: MOLT-4 leukemia
RPMI-8226 leukemia = tested on: RPMI-8226 leukemia
U251 CNS = tested on: U251 CNS
M14 melanoma = tested on: M14 melanoma
NCI-H460 lung = tested on: NCI-H460 lung
SNB-19 CNS = tested on: SNB-19 CNS
MDA-MB-231 breast = tested on: MDA-MB-231 breast
K-562 leukemia = tested on: K-562 leukemia
SF-295 CNS = tested on: SF-295 CNS
SR leukemia = tested on: SR leukemia
BT-549 breast = tested on: BT-549 breast
HL-60(TB) leukemia = tested on: HL-60(TB) leukemia
KM12 colon = tested on: KM12 colon
SK-MEL-5 melanoma = tested on: SK-MEL-5 melanoma
SF-268 CNS = tested on: SF-268 CNS
HOP-92 NSCLC = tested on: HOP-92 NSCLC
HOP-62 NSCLC = tested on: HOP-62 NSCLC
SN12C renal = tested on: SN12C renal
SW-620 colon = tested on: SW-620 colon
786-0 renal = tested on: 786-0 renal
COLO 205 colon = tested on: COLO 205 colon
SK-MEL-2 melanoma = tested on: SK-MEL-2 melanoma
UO-31 renal = tested on: UO-31 renal
HCT-116 colon = tested on: HCT-116 colon
TK-10 renal = tested on: TK-10 renal
LOX IMVI melanoma = tested on: LOX IMVI melanoma
MALME-3M melanoma = tested on: MALME-3M melanoma
PC-3 prostate = tested on: PC-3 prostate
MDA-MB-435 = tested on: MDA-MB-435
HT29 colon = tested on: HT29 colon
EKVX NSCLC = tested on: EKVX NSCLC
NCI-H23 lung = tested on: NCI-H23 lung

Cc1c2c(cc[n+]1Cc1ccccc1)c1ccc(OCC3CCCCC3)cc1n2CC1CCCCC1
GI50 (UACC-62 melanoma): 0.342 µM | TGI (UACC-62 melanoma): 1.28 µM | GI50 (ACHN renal): 1.24 µM | TGI (ACHN renal): 2.53 µM | GI50 (OVCAR-4 ovarian): 0.235 µM | TGI (OVCAR-4 ovarian): 0.735 µM | GI50 (IGROV1 ovarian): 0.525 µM | TGI (IGROV1 ovarian): 2.51 µM | GI50 (SF-539 CNS): 1.49 µM | TGI (SF-539 CNS): 2.88 µM | GI50 (CAKI-1 renal): 1.28 µM | TGI (CAKI-1 renal): 2.64 µM | GI50 (SK-OV-3 ovarian): 0.506 µM | TGI (SK-OV-3 ovarian): 1.56 µM | GI50 (NCI/ADR-RES ovarian): 1.75 µM | TGI (NCI/ADR-RES ovarian): 4.29 µM | GI50 (UACC-257 melanoma): 0.299 µM | TGI (UACC-257 melanoma): 0.961 µM | GI50 (SK-MEL-28 melanoma): 0.59 µM | TGI (SK-MEL-28 melanoma): 1.88 µM | GI50 (HS 578T breast): 0.525 µM | TGI (HS 578T breast): 4.06 µM | GI50 (SNB-75 CNS): 0.293 µM | TGI (SNB-75 CNS): 1.47 µM | GI50 (NCI-H522 lung): 0.261 µM | TGI (NCI-H522 lung): 0.788 µM | GI50 (MCF7 breast): 0.306 µM | TGI (MCF7 breast): 1.11 µM | GI50 (CCRF-CEM leukemia): 0.207 µM | TGI (CCRF-CEM leukemia): 0.787 µM | GI50 (T-47D breast): 0.56 µM | TGI (T-47D breast): 1.79 µM | GI50 (OVCAR-8 ovarian): 0.364 µM | TGI (OVCAR-8 ovarian): 1.35 µM

O=C(NCCNCCO)c1ccc2oc3cc4ccccc4c(=O)n3c2c1
GI50 (UACC-62 melanoma): 7.85 µM | TGI (UACC-62 melanoma): 19 µM | GI50 (RXF 393 renal): 9.96 µM | TGI (RXF 393 renal): 21.1 µM | GI50 (A549 NSCLC): 17.6 µM | TGI (A549 NSCLC): > 50 µM | GI50 (MOLT-4 leukemia): 6.88 µM | TGI (MOLT-4 leukemia): > 50 µM | GI50 (RPMI-8226 leukemia): 12.5 µM | TGI (RPMI-8226 leukemia): 35.6 µM | GI50 (OVCAR-4 ovarian): 15.8 µM | TGI (OVCAR-4 ovarian): 36.8 µM | GI50 (U251 CNS): 8.52 µM | TGI (U251 CNS): 17.1 µM | GI50 (IGROV1 ovarian): 5.77 µM | TGI (IGROV1 ovarian): 17.7 µM | GI50 (M14 melanoma): 8.6 µM | TGI (M14 melanoma): 16.7 µM | GI50 (NCI-H460 lung): 7.08 µM | TGI (NCI-H460 lung): 15.4 µM | GI50 (SNB-19 CNS): 14.1 µM | TGI (SNB-19 CNS): 40.9 µM | GI50 (MDA-MB-231 breast): 8.12 µM | TGI (MDA-MB-231 breast): 19.9 µM | GI50 (CAKI-1 renal): 9.56 µM | TGI (CAKI-1 renal): 29.6 µM | GI50 (K-562 leukemia): 14.9 µM | TGI (K-562 leukemia): > 50 µM | GI50 (SF-295 CNS): 14.8 µM | TGI (SF-295 CNS): > 50 µM | GI50 (SR leukemia): 4.64 µM | TGI (SR leukemia): > 50 µM | GI50 (SK-OV-3 ovarian): 8.66 µM | TGI (SK-OV-3 ovarian): 20.4 µM | GI50 (BT-549 breast): 12.3 µM | TGI (BT-549 breast): 24.1 µM | GI50 (HL-60(TB) leukemia): 11.7 µM | TGI (HL-60(TB) leukemia): 34 µM | GI50 (NCI/ADR-RES ovarian): > 50 µM | TGI (NCI/ADR-RES ovarian): > 50 µM | GI50 (KM12 colon): 10.5 µM | TGI (KM12 colon): 40.4 µM | GI50 (SK-MEL-5 melanoma): 9.26 µM | TGI (SK-MEL-5 melanoma): 16.4 µM | GI50 (SF-268 CNS): 7.42 µM | TGI (SF-268 CNS): 18.5 µM | GI50 (HOP-92 NSCLC): 7.96 µM | TGI (HOP-92 NSCLC): 29.6 µM | GI50 (HOP-62 NSCLC): 9.6 µM | TGI (HOP-62 NSCLC): 25.5 µM | GI50 (UACC-257 melanoma): 9.88 µM | TGI (UACC-257 melanoma): 20.2 µM | GI50 (SN12C renal): 10.7 µM | TGI (SN12C renal): 33 µM | GI50 (SW-620 colon): 5.93 µM | TGI (SW-620 colon): 14.7 µM | GI50 (SK-MEL-28 melanoma): 22.8 µM | TGI (SK-MEL-28 melanoma): > 50 µM | GI50 (786-0 renal): 14.6 µM | TGI (786-0 renal): 44.4 µM | GI50 (COLO 205 colon): 12 µM | TGI (COLO 205 colon): > 50 µM | GI50 (SNB-75 CNS): 15.2 µM | TGI (SNB-75 CNS): 47.5 µM | GI50 (SK-MEL-2 melanoma): 6.52 µM | TGI (SK-MEL-2 melanoma): 15.5 µM | GI50 (NCI-H522 lung): 5.62 µM | TGI (NCI-H522 lung): 14.2 µM | GI50 (UO-31 renal): 7.11 µM | TGI (UO-31 renal): 16.8 µM | GI50 (HCT-116 colon): 8.42 µM | TGI (HCT-116 colon): 19.8 µM | GI50 (TK-10 renal): 9.93 µM | TGI (TK-10 renal): 20.3 µM | GI50 (LOX IMVI melanoma): 6.72 µM | TGI (LOX IMVI melanoma): 14 µM | GI50 (MALME-3M melanoma): 12.2 µM | TGI (MALME-3M melanoma): 24.1 µM | GI50 (PC-3 prostate): 13.2 µM | TGI (PC-3 prostate): > 50 µM | GI50 (T-47D breast): 10.2 µM | TGI (T-47D breast): 27.4 µM | GI50 (MDA-MB-435): 10.3 µM | TGI (MDA-MB-435): 24.2 µM | GI50 (HT29 colon): 16.1 µM | TGI (HT29 colon): > 50 µM | GI50 (EKVX NSCLC): 5.63 µM | TGI (EKVX NSCLC): 19.2 µM | GI50 (NCI-H23 lung): 9.97 µM | TGI (NCI-H23 lung): 23.4 µM | GI50 (OVCAR-8 ovarian): 8.33 µM | TGI (OVCAR-8 ovarian): 25.5 µM
